Tests used:
[1] = target: T1, recombinant human ACC1 (rhACC1) (Homo sapiens, UniProt Q13085, DEL44-44); assay: recombinant hACC1 Transcreener assay (ADP detection FP); type: biochemical; conditions: recombinant hACC1 Transcreener assay, 50 μM ATP, minimum of n=3; read-out: hACC1
T1 construct: infected with recombinant baculovirus containing full length human ACC1 cDNA; made in house; host or cells: SF9 insect cells (baculovirus)
Experimental: For example direct inhibition of ACC activity, for the compound of Formula (1) was determined using preparations of recombinant human ACC1 (rhACC1) and recombinant human ACC2 (rhACC2).
[1] Preparation of rhACC1. Two liters of SF9 cells, infected with recombinant baculovirus containing full length human ACC1 cDNA, were suspended in ice-cold lysis buffer (25 mM Tris, pH 7.5; 150 mM NaCl; 10% glycerol; 5 mM imidazole (EMD Bioscience; Gibbstown, N.J.); 2 mM TCEP (BioVectra; Charlottetown, Canada); Benzonase nuclease (10000 U/100 g cell paste; Novagen; Madison, Wis.); EDTA-free protease inhibitor cocktail (1 tab/50 mL; Roche Diagnostics; Mannheim, Germany). Cells were lysed by 3 cycles of freeze-thaw and centrifuged at 40,000×g for 40 minutes (4° C.). Supernatant was directly loaded onto a HisTrap FF crude column (GE Healthcare; Piscataway, N.J.) and eluted with an imidazole gradient up to 0.5 M over 20 column volumes (CV). ACC1-containing fractions were pooled and diluted 1:5 with 25 mM Tris, pH 7.5, 2 mM TCEP, 10% glycerol and direct loaded onto a CaptoQ (GE Healthcare) column and eluted with an NaCl gradient up to 1 M over 20 CV's. Phosphate groups were removed from purified ACC1 by incubation with lambda phosphatase (100 U/10 μM target protein; New England Biolabs; Beverly, Mass.) for 14 hours at 4° C.; okadaic acid was added (1 μM final concentration; Roche Diagnostics) to inhibit the phosphatase. Purified ACC1 was exchanged into 25 mM Tris, pH 7.5, 2 mM TCEP, 10% glycerol, 0.5 M NaCl by 6 hour dialysis at 4° C. Aliquots were prepared and frozen at −80° C.
[2] […] The final conditions for the assay were 50 mM HEPES, pH 7.2, 10 mM MgCl2, 7.5 mM tripotassium citrate, 2 mM DTT, 0.1 mg/mL BSA, 30 μM acetyl-CoA, 50 μM ATP, and 10 mM KHCO3. Typically, a 10 μl reaction was run for 120 min at 25° C., and 10 μl of Transcreener stop and detect buffer was added and the combination incubated at room temp for an additional 1 hour.
All of the examples in both assays were run with a minimum of n=3.

[2] = target: T2, recombinant human ACC2 (rhACC2) (Homo sapiens, UniProt O00763, V2141I); assay: recombinant hACC2 Transcreener assay (ADP detection FP); type: biochemical; conditions: 50 μM ATP, minimum of n=3
T2 construct: a full length Cytomax clone of ACC2 was purchased from Cambridge Bioscience Limited; made in house; host or cells: CHO cells (tetracycline-inducible, pcDNA5 FRT TO-TOPO)
T2 sequence (O00763 whole entry V2141I): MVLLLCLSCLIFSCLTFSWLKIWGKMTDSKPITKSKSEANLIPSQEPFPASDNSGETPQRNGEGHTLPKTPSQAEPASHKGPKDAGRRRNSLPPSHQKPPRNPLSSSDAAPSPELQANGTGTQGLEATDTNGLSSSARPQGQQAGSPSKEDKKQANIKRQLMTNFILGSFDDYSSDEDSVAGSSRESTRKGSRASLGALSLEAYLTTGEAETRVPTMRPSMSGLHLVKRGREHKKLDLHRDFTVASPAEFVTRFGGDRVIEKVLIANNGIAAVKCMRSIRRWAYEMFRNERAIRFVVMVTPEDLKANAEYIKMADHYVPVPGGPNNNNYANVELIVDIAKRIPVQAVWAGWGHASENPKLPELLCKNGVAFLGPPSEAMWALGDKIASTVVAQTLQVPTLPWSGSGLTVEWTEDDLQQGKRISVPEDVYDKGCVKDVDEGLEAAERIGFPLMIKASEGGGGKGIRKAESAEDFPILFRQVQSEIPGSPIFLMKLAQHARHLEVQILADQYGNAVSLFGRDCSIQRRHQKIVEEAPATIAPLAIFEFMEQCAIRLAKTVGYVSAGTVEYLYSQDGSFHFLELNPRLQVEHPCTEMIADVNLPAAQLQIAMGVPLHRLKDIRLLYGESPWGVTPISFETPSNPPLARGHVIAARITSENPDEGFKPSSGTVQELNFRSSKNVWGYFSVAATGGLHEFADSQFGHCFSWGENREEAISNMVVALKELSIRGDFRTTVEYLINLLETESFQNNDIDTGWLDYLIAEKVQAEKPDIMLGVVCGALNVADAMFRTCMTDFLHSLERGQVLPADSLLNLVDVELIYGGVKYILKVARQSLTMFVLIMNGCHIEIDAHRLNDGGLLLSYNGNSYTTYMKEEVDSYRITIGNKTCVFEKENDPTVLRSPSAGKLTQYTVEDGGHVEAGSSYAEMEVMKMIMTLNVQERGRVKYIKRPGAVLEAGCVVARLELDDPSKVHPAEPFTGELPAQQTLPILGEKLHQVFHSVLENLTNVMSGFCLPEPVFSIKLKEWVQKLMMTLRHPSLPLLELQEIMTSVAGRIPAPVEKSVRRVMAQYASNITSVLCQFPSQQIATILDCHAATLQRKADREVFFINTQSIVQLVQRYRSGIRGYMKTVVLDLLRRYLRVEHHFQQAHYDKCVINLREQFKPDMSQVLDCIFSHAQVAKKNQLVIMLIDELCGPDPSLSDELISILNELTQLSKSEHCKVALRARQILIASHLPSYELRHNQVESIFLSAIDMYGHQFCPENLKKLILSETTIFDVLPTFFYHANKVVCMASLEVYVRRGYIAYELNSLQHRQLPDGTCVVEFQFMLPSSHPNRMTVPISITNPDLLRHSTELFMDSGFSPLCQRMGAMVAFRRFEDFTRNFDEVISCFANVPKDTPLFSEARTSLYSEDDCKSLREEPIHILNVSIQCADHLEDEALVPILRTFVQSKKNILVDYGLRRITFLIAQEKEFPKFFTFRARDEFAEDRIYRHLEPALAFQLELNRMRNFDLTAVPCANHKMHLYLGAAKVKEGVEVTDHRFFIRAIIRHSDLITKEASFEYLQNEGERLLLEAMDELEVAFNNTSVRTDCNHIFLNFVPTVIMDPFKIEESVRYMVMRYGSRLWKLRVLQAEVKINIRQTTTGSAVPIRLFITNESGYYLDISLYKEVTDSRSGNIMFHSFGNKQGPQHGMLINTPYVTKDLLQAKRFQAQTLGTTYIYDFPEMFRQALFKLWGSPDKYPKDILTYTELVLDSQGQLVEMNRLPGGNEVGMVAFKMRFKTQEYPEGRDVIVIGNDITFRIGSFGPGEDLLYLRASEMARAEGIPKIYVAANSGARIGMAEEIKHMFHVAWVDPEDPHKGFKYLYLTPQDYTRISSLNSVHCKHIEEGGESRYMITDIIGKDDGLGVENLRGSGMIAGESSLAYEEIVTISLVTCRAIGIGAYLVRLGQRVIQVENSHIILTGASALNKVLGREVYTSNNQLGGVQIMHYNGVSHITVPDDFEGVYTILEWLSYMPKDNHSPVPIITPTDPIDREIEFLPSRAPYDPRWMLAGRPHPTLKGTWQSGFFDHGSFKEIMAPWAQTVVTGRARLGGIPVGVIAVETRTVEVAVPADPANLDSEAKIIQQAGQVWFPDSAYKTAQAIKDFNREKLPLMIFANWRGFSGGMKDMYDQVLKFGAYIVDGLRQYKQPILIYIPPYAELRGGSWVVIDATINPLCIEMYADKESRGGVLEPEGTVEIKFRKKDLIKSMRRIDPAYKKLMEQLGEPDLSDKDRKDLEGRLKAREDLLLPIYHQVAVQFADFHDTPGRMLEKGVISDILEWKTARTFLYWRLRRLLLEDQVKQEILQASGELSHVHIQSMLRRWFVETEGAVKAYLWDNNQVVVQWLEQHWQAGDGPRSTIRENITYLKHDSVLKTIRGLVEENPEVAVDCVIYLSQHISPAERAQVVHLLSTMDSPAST
Experimental: For example direct inhibition of ACC activity, for the compound of Formula (1) was determined using preparations of recombinant human ACC1 (rhACC1) and recombinant human ACC2 (rhACC2). Representative sequences of the recombinant human ACC1 and ACC2 that can be used in the assay are provided in FIG. 1 (SEQ ID NO. 1) and FIG. 2 (SEQ. ID NO. 2), respectively.
[3] Preparation of rhACC2. Human ACC2 inhibition was measured using purified recombinant human ACC2 (hrACC2). Briefly, a full length Cytomax clone of ACC2 was purchased from Cambridge Bioscience Limited and was sequenced and subcloned into PCDNA5 FRT TO-TOPO (Invitrogen, Carlsbad, Calif.). The ACC2 was expressed in CHO cells by tetracycline induction and harvested in 5 liters of DMEM/F12 with glutamine, biotin, hygromycin and blasticidin with 1 μg/mL tetracycline (Invitrogen, Carlsbad, Calif.). The conditioned medium containing ACC2 was then applied to a Softlink Soft Release Avidin column (Promega, Madison, Wis.) and eluted with 5 mM biotin. 4 mgs of ACC2 were eluted at a concentration of 0.05 mg/mL (determined by A280) with an estimated purity of 95% ([…]). The purified ACC2 was dialyzed in 50 mM Tris, 200 mM NaCl, 4 mM DTT, 2 mM EDTA, and 5% glycerol. The pooled protein was frozen and stored at −80° C., with no loss of activity upon thawing. For measurement of ACC2 activity and assessment of ACC2 inhibition, test compounds were dissolved in DMSO and added to the rhACC2 enzyme as a 5× stock with a final DMSO concentration of 1%.
[4] Measurement of human ACC2 inhibition. hACC2 was assayed in a Costar #3676 (Costar, Cambridge, Mass.) 384-well plate using the Transcreener ADP detection FP assay kit (Bellbrook Labs, Madison, Wis.) using the manufacturer's recommended conditions for a 50 uM ATP reaction. The final conditions for the assay were 50 mM HEPES, pH 7.2, 5 mM MgCl2, 5 mM tripotassium citrate, 2 mM DTT, 0.1 mg/mL BSA, 30 μM acetyl-CoA, 50 μM ATP, and 8 mM KHCO3. Typically, a 10 μl reaction was run for 50 min at 25° C., and 10 μl of Transcreener stop and detect buffer was added and the combination incubated at room temp for an additional 1 hour. The data was acquired on an Envision Fluorescence reader (Perkinelmer) using a 620 excitation Cy5 FP general dual mirror, 620 excitation Cy5 FP filter, 688 emission (S) and a 688 (P) emission filter.
The results using the recombinant hACC1 and recombinant hACC2 Transcreener assays described above are summarized in the table below for the Compounds of Formula (I) exemplified in the Examples above. All of the examples in both assays were run with a minimum of n=3.

| Compound | IC50 [1] [nM] | IC50 [2] [nM] |
| --- | --- | --- |
| CC(C)(C)n1ncc2c1C(=O)CC1(CCN(C(=O)c3cc4c(-c5ccc(C(=O)O)cc5)cccc4[nH]3)CC1)C2 [Example 18, 4-{2-[(1-tert-butyl-7-oxo-1,4,6,7-tetrahydro-1′H-spiro[indazole-5,4′-piperidin]-1′-yl)carbonyl]-1H-indol-4-yl}benzoic acid] | 4.5 | 14.6 |
| CCNc1nc(-c2cccc(C(=O)O)c2)ccc1C(=O)N1CCC2(CC1)CC(=O)c1c(cnn1C(C)(C)C)C2 [Example 19, 3-{5-[(1-tert-butyl-7-oxo-1,4,6,7-tetrahydro-1′H-spiro[indazole-5,4′-piperidin]-1′-yl)carbonyl]-6-(ethylamino)pyridin-2-yl}benzoic acid] | 837 | 487 |
| CC(C)(C)n1ncc2c1C(=O)CC1(CCN(C(=O)c3cc(C(=O)O)cc(-c4ncco4)c3)CC1)C2 [Example 21, 3-[(1-tert-butyl-7-oxo-1,4,6,7-tetrahydro-1′H-spiro[indazole-5,4′-piperidin]-1′-yl)carbonyl]-5-(1,3-oxazol-2-yl)benzoic acid] | 627 | 507 |
| CC(C)n1ncc2c1C(=O)CC1(CCN(C(=O)c3cc(C(=O)O)cc(-c4ncco4)c3)CC1)C2 [Example 22, 3-[(1-isopropyl-7-oxo-1,4,6,7-tetrahydro-1′H-spiro[indazole-5,4′-piperidin]-1′-yl)carbonyl]-5-(1,3-oxazol-2-yl)benzoic acid] | 1010 | 685 |
| CC(C)Nc1nc(-c2cccc(C(=O)O)c2)ccc1C(=O)N1CCC2(CC1)CC(=O)c1c(cnn1C(C)C)C2 [Example 23, 3-{6-(isopropylamino)-5-[(1-isopropyl-7-oxo-1,4,6,7-tetrahydro-1′H-spiro[indazole-5,4′-piperidin]-1′-yl)carbonyl]pyridin-2-yl}benzoic acid] | 1370 | 420 |
| CC(C)n1ncc2c1C(=O)CC1(CCN(C(=O)c3cc(-c4ccc(C(=O)O)cc4)[nH]c(=O)c3)CC1)C2 [Example 27, 4-{4-[(1-isopropyl-7-oxo-1,4,6,7-tetrahydro-1′H-spiro[indazole-5,4′-piperidin]-1′-yl)carbonyl]-6-oxo-1,6-dihydropyridin-2-yl}benzoic acid] | 2910 | 1140 |
| CC(C)n1ncc2c1C(=O)CC1(CCN(C(=O)c3cc4c(-c5cccc(C(=O)O)c5)ccnc4[nH]3)CC1)C2 [Example 28, 3-{2-[(1-isopropyl-7-oxo-1,4,6,7-tetrahydro-1′H-spiro[indazole-5,4′-piperidin]-1′-yl)carbonyl]-1H-pyrrolo[2,3-b]pyridin-4-yl}benzoic acid] | 6.7 | 5.35 |
| CC(C)n1ncc2c1C(=O)CC1(CCN(C(=O)c3cc4c(-c5ccc(C(=O)O)cc5)ccnc4[nH]3)CC1)C2 [Example 29, 4-{2-[(1-isopropyl-7-oxo-1,4,6,7-tetrahydro-1′H-spiro[indazole-5,4′-piperidin]-1′-yl)carbonyl]-1H-pyrrolo[2,3-b]pyridin-4-yl}benzoic acid] | 13.7 | 6.16 |
| COc1ccc(-c2cccc3[nH]c(C(=O)N4CCC5(CC4)CC(=O)c4c(cnn4C(C)C)C5)cc23)cc1CC(=O)O [Example 31, (5-{2-[(1-isopropyl-7-oxo-1,4,6,7-tetrahydro-1′H-spiro[indazole-5,4′-piperidin]-1′-yl)carbonyl]-1H-indol-4-yl}-2-methoxyphenyl)acetic acid] | 23.1 | 54.8 |
| CC(C)n1ncc2c1C(=O)CC1(CCN(C(=O)c3cc4c(-c5ccc(C(=O)O)cc5)ncnc4[nH]3)CC1)C2 [Example 34, 4-{6-[(1-isopropyl-7-oxo-1,4,6,7-tetrahydro-1′H-spiro[indazole-5,4′-piperidin]-1′-yl)carbonyl]-7H-pyrrolo[2,3-d]pyrimidin-4-yl}benzoic acid] | 55.8 | 42.6 |

Next, values leading:

| IC50 [1] [nM] | IC50 [2] [nM] | Compound |
| --- | --- | --- |
| 3140 | 557 | CC(C)Nc1nc(-c2ccc(C(=O)O)cc2)ccc1C(=O)N1CCC2(CC1)CC(=O)c1c(cnn1C(C)(C)C)C2 [Example 24, 4-{5-[(1-tert-butyl-7-oxo-1,4,6,7-tetrahydro-1′H-spiro[indazole-5,4′-piperidin]-1′-yl)carbonyl]-6-(isopropylamino)pyridin-2-yl}benzoic acid] |
| 600 | 202 | CC(C)Nc1nc(-c2ccc(C(=O)O)cc2)ccc1C(=O)N1CCC2(CC1)CC(=O)c1c(cnn1C(C)C)C2 [Example 25, 4-{6-(isopropylamino)-5-[(1-isopropyl-7-oxo-1,4,6,7-tetrahydro-1′H-spiro[indazole-5,4′-piperidin]-1′-yl)carbonyl]pyridin-2-yl}benzoic acid] |
| 20.4 | 7.49 | CC(C)n1ncc2c1C(=O)CC1(CCN(C(=O)c3cc(-c4ccc(C(=O)O)cc4)c4cn[nH]c4c3)CC1)C2 [Example 26, 4-{6-[(1-isopropyl-7-oxo-1,4,6,7-tetrahydro-1′H-spiro[indazole-5,4′-piperidin]-1′-yl)carbonyl]-1H-indazol-4-yl}benzoic acid] |
| 16.1 | 18.8 | CC(C)n1ncc2c1C(=O)CC1(CCN(C(=O)c3cc4c(-c5ccc(C(=O)O)cc5)nccc4[nH]3)CC1)C2 [Example 30, 4-{2-[(1-isopropyl-7-oxo-1,4,6,7-tetrahydro-1′H-spiro[indazole-5,4′-piperidin]-1′-yl)carbonyl]-1H-pyrrolo[3,2-c]pyridin-4-yl}benzoic acid] |
| 31.8 | 12.5 | CC(C)n1ncc2c1C(=O)CC1(CCN(C(=O)c3cc(-c4cccc(C(=O)O)c4)nc(N(C)C)c3)CC1)C2 [Example 32, 3-{6-(dimethylamino)-4-[(1-isopropyl-7-oxo-1,4,6,7-tetrahydro-1′H-spiro[indazole-5,4′-piperidin]-1′-yl)carbonyl]pyridin-2-yl}benzoic acid] |
| 16.3 | 8.7 | CC(C)n1ncc2c1C(=O)CC1(CCN(C(=O)c3cc(-c4ccc(C(=O)O)cc4)nc(N(C)C)c3)CC1)C2 [Example 33, 4-{6-(dimethylamino)-4-[(1-isopropyl-7-oxo-1,4,6,7-tetrahydro-1′H-spiro[indazole-5,4′-piperidin]-1′-yl)carbonyl]pyridin-2-yl}benzoic acid] |
